Test results as given in patent US20230357179A1, “RAF KINASE INHIBITORS AND METHODS OF USE THEREOF” (Deciphera Pharmaceuticals, LLC, priority 2021, published 2023).

How the values were obtained:
Miapaca-2 cells = test: MiaPaca-2 combination cell proliferation assay (1) with cobimetinib, 96-well; assay type: cell-based; conditions: inhibition of cell proliferation, read-out: MiaPaca-2 Combo (1) IC50
Description: MiaPaca-2 Combination Cell proliferation Assay (1)
Miapaca-2 cells (catalog #CRL-1420) are obtained from the American Type Culture Collect (ATCC, Manassas, VA). Briefly, cells were grown in DMEM supplemented with 10% characterized fetal bovine serum (Invitrogen, Carlsbad, CA), 2.5% New Zealand sourced horse serum and 1% Penicillin/Streptomycin/L-Glutamine at 37° C., 5% CO2, and 95% humidity. Cells are expanded until reaching 70-95% confluency at which point they are subcultured or harvested for assay use. A serial dilution of test compound was dispensed into multiple 96-well black clear bottom plates in triplicate. A serial dilution of complete growth medium containing cobimetinib was prepared at twice the final concentration and 100 μL was dispensed across the test compound titration in triplicate. Three thousand cells are added per well in 100 μL complete growth medium in each 96-well plate. Plates are incubated for 67-72 hours at 37° C., 5% CO2, and 95% humidity. At the end of the incubation, 40 μL of a 440 μM solution of resazurin (Sigma, St. Louis, MO) in PBS is added to each well of the plate and plates are incubated for an additional 5-7 hours at 37° C., 5% CO2, and 95% humidity. Plates are read on a Synergy2 or equivalent reader (Biotek, Winooski VT) using an excitation of 540 nm and an emission of 600 nm. Drug synergy was assessed via BLISS analysis in the Combenefit software (Cancer Research UK Cambridge Institute, Cambridge, UK). Data is analyzed using Prism software (GraphPad, San Diego, CA) to calculate IC50 values. Shifts in test compound IC50 values are reported from top-constrained combination therapy curves.

WM3629 cells = test: WM3629 cell proliferation assay (2), resazurin, 384-well; assay type: cell-based; conditions: inhibition of cell proliferation, 67-72 hours
Description: WM3629 Cell Proliferation Assay (2)
WM3629 cells (#WM3629-01-0001) are obtained from Rockland Immunochemicals Inc (Gilbertsville, PA). Briefly, cells were grown in MCDB 153 medium (Sigma, #M7403, St. Louis, MO) supplemented with 20% Leibovitz's L-15 (ThermoFisher #11415-064, Waltham, MA), 2% heat inactivated fetal bovine serum (ThermoFisher, #A3840001, Waltham, MA), 5 μg/mL Insulin (Bovine Pancreas) (Sigma, #I0516, St. Louis, MO), 1.68 mM Calcium Chloride (Sigma, #C-34006, St. Louis, MO) and 1% Penicillin/Streptomycin/L-Glutamine (ThermoFisher #10378016, Waltham, MA) at 37° C., 5% CO2, and 95% humidity. Cells are expanded until reaching 70-95% confluency at which point they are sub-cultured or harvested for assay use. Using the Beckman Coulter Echo 650, a serial dilution of test compound is dispensed into a 384-well black clear bottom plate in triplicate. One thousand one hundred twenty-five cells are added per well in 50 μL complete growth medium in the 384-well plate. Plates are incubated for 67-72 hours at 37° C., 5% CO2, and 95% humidity. […] Plates are read on a Synergy2 or equivalent reader (Biotek, Winooski VT) using an excitation of 540 nm and an emission of 600 nm. Data is analyzed using Prism software (GraphPad, San Diego, CA) to calculate IC50 values.

Row | Structure (SMILES) | IC50 (Miapaca-2 cells) [nM] | IC50 (WM3629 cells) [nM]
1 | Cc1cc(F)c(NC(=O)NCCC2(C)CC2)cc1-c1cc(OCCO)nc(-c2ccnc3[nH]ncc23)c1 [Example 87] | 100 to 500 | 
2 | CNC(=O)c1cc(-c2cc(-c3cc(NC(=O)N4CC[C@H](C(F)(F)F)C4)ccc3C)ccn2)ccn1 [Example 215] |  | 500 to 1000
3 | CNC(=O)c1cc(-c2cncc(-c3cc(NC(=O)N4CC[C@H](C(F)(F)F)C4)ccc3C)c2)ccn1 [Example 228] |  | 1000 to 10000
